The results in this text go back to publication doi:10.1101/2025.06.05.657999, “A secreted fatty acid- and retinol- binding protein from Heligmosomoides polygyrus suppresses host macrophage polarization” (bioRxiv, 2025).

As a reminder, the Kd is the equilibrium constant for the complex coming apart. Read a high Kd as weaker binding.

Experiment [1] concerns the target T1, Hp-FAR-2 (Heligmosomoides polygyrus, UniProt A0A183GLK6).
T1 construct: mature protein, residues 18-180 of 180 (signal peptide removed), N-terminal 6-His tag, pET histev N'term, E. coli BL21(DE3), Ni-NTA and SEC; ~17-18 kDa on SDS-PAGE
Kind of experiment: fluorescence titration, one-site fit. It counts as binding.

In experiment [2] the target is T1, Hp-FAR-2. Kind of experiment: fluorescence titration of retinol, one-site fit. It counts as binding.

T1 sequence (A0A183GLK6 entry or part of it): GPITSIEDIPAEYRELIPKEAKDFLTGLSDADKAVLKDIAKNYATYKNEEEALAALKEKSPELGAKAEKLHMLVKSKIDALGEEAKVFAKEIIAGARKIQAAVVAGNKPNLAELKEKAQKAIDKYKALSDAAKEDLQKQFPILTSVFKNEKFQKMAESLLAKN

On to `CN(C)c1cccc2c(S(=O)(=O)NCCCCCCCCCCC(=O)O)cccc12` [DAUDA], for which the Kd on Hp-FAR-2 [1] turned out to be 2.65 µM. Regarding `CC1=C(/C=C/C(C)=C/C=C/C(C)=C/CO)C(C)(C)CCC1` [retinol], the Kd on Hp-FAR-2 [2] was 6.55 µM. In other words, the single-digit micromolar range.
